Laboratory results from patent US8207144B2, “Sodium salt of disaccharide compound, production method and use of same” (Eisai R & D Management Co., Ltd., priority 2006, dated 2012).

Experiment: Storage stability test (formation of impurities A, B and C by HPLC)
Assay type: physicochemical
Settings: HPLC area percent
Experimental: Consequently, formation rates (converted to monthly rates) were calculated for each of the three types of decomposition products (impurities A, B and C) using the area percent.

[1] = storage at 25° C. in screw-cap glass bottle, day 0
[2] = storage at 25° C., day 1.0, listed as 3.93 Na Salt
[3] = storage at 25° C., day 1.9, listed as 3.93 Na Salt
[4] = storage at 25° C., day 4.5, listed as 3.93 Na Salt
[5] = storage at 25° C., day 1.0, listed as 3.67 Na Salt
[6] = storage at 25° C., day 1.9, listed as 3.67 Na Salt
[7] = storage at 25° C., day 4.5, listed as 3.67 Na Salt

## CCCCCC/C=C\CCCCCCCCCC(=O)N[C@H]1[C@H](OC[C@H]2O[C@H](OP(=O)(O)O)[C@H](NC(=O)CC(=O)CCCCCCCCCCC)[C@@H](OCCCCCCCCCC)[C@@H]2O)O[C@H](COC)[C@@H](OP(=O)(O)O)[C@@H]1OCC[C@@H](CCCCCCC)OC [Example 2]
[1]
  Impurity A: 0.00%
Storage at 25° C., day 0
  Impurity B: 0.00%
  Impurity C: 0.00%
Storage at 25° C., day 18
  Impurity A: 0.00%
  Impurity B: 0.00%
  Impurity C: 0.17%

## CCCCCC/C=C\CCCCCCCCCC(=O)NC1C(OCC2OC(OP(=O)([O-])[O-])C(NC(=O)CC(=O)CCCCCCCCCCC)C(OCCCCCCCCCC)C2O)OC(COC)C(OP(=O)([O-])[O-])C1OCCC(CCCCCCC)OC.[Na+].[Na+].[Na+].[Na+] (stereo not drawn) [Comparative Example 1, reference compound]
[1]
  Impurity A: 0.00%
Storage at 25° C., day 0
  Impurity B: 0.18%
  Impurity C: 0.00%
Storage at 25° C., day 1.0
  Impurity A: 0.06%
  Impurity B: 0.36%
  Impurity C: 0.00%
Storage at 25° C., day 1.9
  Impurity A: 0.08%
  Impurity B: 0.48%
  Impurity C: 0.00%
Storage at 25° C., day 4.5
  Impurity A: 0.12%
  Impurity B: 0.67%
  Impurity C: 0.00%
Storage at 25° C., day 8.8
  Impurity C: 0.00%
Storage at 25° C., day 29.5
  Impurity C: 0.03%

## CCCCCC/C=C\CCCCCCCCCC(=O)N[C@H]1[C@H](OC[C@H]2O[C@H](OP(=O)([O-])[O-])[C@H](NC(=O)CC(=O)CCCCCCCCCCC)[C@@H](OCCCCCCCCCC)[C@@H]2O)O[C@H](COC)[C@@H](OP(=O)([O-])[O-])[C@@H]1OCC[C@@H](CCCCCCC)OC.[Na+].[Na+].[Na+].[Na+] [Example 4]
[1]
  Impurity A: 0.00%
Storage at 25° C., day 0
  Impurity C: 0.00%
Storage at 25° C., day 0, listed as 3.93 Na Salt
  Impurity B: 0.14%
Storage at 25° C., day 1.0
  Impurity C: 0.00%
[2]
  Impurity A: 0.03%
  Impurity B: 0.26%
Storage at 25° C., day 1.9
  Impurity C: 0.00%
[3]
  Impurity A: 0.04%
  Impurity B: 0.29%
Storage at 25° C., day 4.5
  Impurity C: 0.01%
[4]
  Impurity A: 0.06%
  Impurity B: 0.38%
Storage at 25° C., day 8.8
  Impurity C: 0.01%
Storage at 25° C., day 29.5, listed as 3.93 Na Salt
  Impurity C: 0.06%

## CCCCCC/C=C\CCCCCCCCCC(=O)N[C@H]1[C@H](OC[C@H]2O[C@H](OP(=O)([O-])[O-])[C@H](NC(=O)CC(=O)CCCCCCCCCCC)[C@@H](OCCCCCCCCCC)[C@@H]2O)O[C@H](COC)[C@@H](OP(=O)([O-])[O-])[C@@H]1OCC[C@@H](CCCCCCC)OC.[Na+].[Na+].[Na+].[Na+] [Example 3]
[1]
  Impurity A: 0.00%
Storage at 25° C., day 0
  Impurity C: 0.00%
Storage at 25° C., day 0, listed as 3.67 Na Salt
  Impurity B: 0.08%
Storage at 25° C., day 1.0
  Impurity C: 0.00%
[5]
  Impurity A: 0.00%
  Impurity B: 0.12%
Storage at 25° C., day 1.9
  Impurity C: 0.00%
[6]
  Impurity A: 0.01%
  Impurity B: 0.09%
Storage at 25° C., day 4.5
  Impurity C: 0.01%
[7]
  Impurity A: 0.01%
  Impurity B: 0.13%
Storage at 25° C., day 8.8
  Impurity C: 0.01%
Storage at 25° C., day 29.5, listed as 3.67 Na Salt
  Impurity C: 0.07%
